Paper PMC7897990, “TriTOX: A novel Trichomonas vaginalis assay platform for high-throughput screening of compound libraries” (International Journal for Parasitology: Drugs and Drug …, 2021)
Structures can show the parent of a compound that is named as a salt. Where two headings read alike, the source gives them in different places.

Columns and labels:
[1] = test system: nontumorigenic neonatal foreskin fibroblast (NFF) cell line
[2] = test system: Trichomonas vaginalis G3 trophozoites; test: microbe, parasite or virus in culture; conditions: 48 h
[3] = NFF fibroblast screen at 5 µg/mL, A = active, I = inactive
[4] = read-out: T.vaginalis_%inb_Rep1
[5] = read-out: T.vaginalis_%inb_Rep2
[6] = NFF fibroblasts, single concentration 5 µg/mL

COC[C@H]1OC(=O)c2coc3c2[C@@]1(C)C1=C(C3=O)[C@@H]2CCC(=O)[C@@]2(C)C[C@H]1OC(C)=O [Wortmannin]
NFF_Activity [1, 3]: I (otherwise these were reported as inactive (I)) | inhibition of growth at 1 µg/mL [2, 4]: 7.97% | inhibition of growth at 1 µg/mL [2, 5]: 13.5%

COC(=O)/C(=C1/OC(=O)C(c2ccccc2)=C1O)c1ccccc1 [Vulpinic acid]
NFF_Activity [1, 3]: I (otherwise these were reported as inactive (I)) | inhibition of growth at 1 µg/mL [2, 4]: 8.02% | inhibition of growth at 1 µg/mL [2, 5]: 11.4%

CC/C=C\[C@H](O)[C@H](O)C1=C(C)C(=O)[C@]2(O1)C(=O)N[C@@](OC)(C(=O)c1ccccc1)[C@@H]2O [Pseurotin A]
NFF_Activity [1, 6]: I (otherwise these were reported as inactive (I)) | inhibition of growth at 1 µg/mL [2, 4]: 11.5% | inhibition of growth at 1 µg/mL [2, 5]: 11.5%

O=C(O)c1c(-c2ccc[nH]2)[nH]c2ccccc2c1=O [Penicinoline]
NFF_Activity [1, 6]: I (otherwise these were reported as inactive (I)) | inhibition of growth at 1 µg/mL [2, 4]: 13.9% | inhibition of growth at 1 µg/mL [2, 5]: 11%

C=C[C@]1(C)C[C@@H](OC(=O)CSCCN(CC)CC)[C@]2(C)[C@H](C)CC[C@]3(CCC(=O)[C@H]32)[C@@H](C)[C@@H]1O [Tiamulin]
NFF_Activity [1, 3]: I (otherwise these were reported as inactive (I)) | inhibition of growth at 1 µg/mL [2, 4]: 12.6% | inhibition of growth at 1 µg/mL [2, 5]: 13.9%

C[C@@H]1C[C@H]2CC[C@H](O2)[C@H](C)C(=O)O[C@@H](C)C[C@@H]2CC[C@@H](O2)[C@@H](C)C(=O)O[C@H](C)C[C@H]2CC[C@H](O2)[C@H](C)C(=O)O[C@@H](C)C[C@@H]2CC[C@@H](O2)[C@@H](C)C(=O)O1 [Nonactin]
NFF_Activity [1]: I (key: active (A) compounds having >25% inhibitory activity; otherwise these were reported as inactive (I)) | inhibition of growth at 1 µg/mL [2, 4]: 11.6% | inhibition of growth at 1 µg/mL [2, 5]: 12.1%

CC[C@H]1CC2CN3CCc4c([nH]c5ccc(OC)cc45)[C@](C(=O)OC)(C2)[C@H]13 (stereo in doubt) [Voacangine]
NFF_Activity [1, 3]: I (otherwise these were reported as inactive (I)) | inhibition of growth at 1 µg/mL [2, 4]: 9.91% | inhibition of growth at 1 µg/mL [2, 5]: 13.7%

C[C@H]1C(=O)O[C@@H]2CCN3CC=C(COC(=O)[C@](C)(O)[C@]1(C)O)[C@H]23 [Monocrotaline]
NFF_Activity [1, 6]: I (otherwise these were reported as inactive (I)) | inhibition of growth at 1 µg/mL [2, 4]: 8.98% | inhibition of growth at 1 µg/mL [2, 5]: 13.2%

C[C@H]1CCCC(=O)CCCCCc2cc(O)cc(O)c2C(=O)O1 [Zearalanone]
NFF_Activity [1, 3]: I (otherwise these were reported as inactive (I)) | inhibition of growth at 1 µg/mL [2, 4]: 10.1% | inhibition of growth at 1 µg/mL [2, 5]: 14.6%

CN1C(=O)[C@]23C[C@@H]4C(C)(C)[C@@]5(C[C@@]41CN2CC[C@@]3(C)O)C(=O)Nc1c5ccc2c1OC=CC(C)(C)O2 [Paraherquamide A]
NFF_Activity [1, 6]: I (otherwise these were reported as inactive (I)) | inhibition of growth at 1 µg/mL [2, 4]: 15.8% | inhibition of growth at 1 µg/mL [2, 5]: 15.5%

COc1cc(C(=O)O)c2c(c1C)OC(=O)c1c(C)cc(O)c(C=O)c1O2 [Psoromic acid]
NFF_Activity [1, 6]: I (otherwise these were reported as inactive (I)) | inhibition of growth at 1 µg/mL [2, 4]: 13.9% | inhibition of growth at 1 µg/mL [2, 5]: 10.4%

C[C@H]1CCCC(=O)CCC/C=C/c2cc(O)cc(O)c2C(=O)O1 [Zearalenone]
NFF_Activity [1, 3]: I (otherwise these were reported as inactive (I)) | inhibition of growth at 1 µg/mL [2, 4]: 7.39% | inhibition of growth at 1 µg/mL [2, 5]: 12%

CCCCCC1=C/C(=C/c2[nH]c(-c3ccc[nH]3)cc2OC)N=C1C [Prodigiosin]
NFF_Activity [1, 6]: I (otherwise these were reported as inactive (I)) | inhibition of growth at 1 µg/mL [2, 4]: 9.63% | inhibition of growth at 1 µg/mL [2, 5]: 1.73%

C/C=C(\C)[C@H](O)[C@H](C)/C=C(C)/C=C/C/C(C)=C/Cc1nc(OC)c(OC)c(O)c1C [Piericidin A]
NFF_Activity [1, 6]: I (otherwise these were reported as inactive (I)) | inhibition of growth at 1 µg/mL [2, 4]: 11.3% | inhibition of growth at 1 µg/mL [2, 5]: 4.17%

CC12C[C@@]34C=CC(=O)[C@@](C)(CCC(=O)Nc5c(O)ccc(C(=O)O)c5O)C3[C@H](CC1C4)O2 (stereo partly drawn) [Platensimycin]
NFF_Activity [1, 6]: I (otherwise these were reported as inactive (I)) | inhibition of growth at 1 µg/mL [2, 4]: 11.3% | inhibition of growth at 1 µg/mL [2, 5]: 10%

CC1(C)CCC[C@]2(C)[C@@H](C=O)C(C=O)=CC[C@@H]12 [Polygodial]
NFF_Activity [1, 6]: A (active (A) compounds having >25% inhibitory activity) | inhibition of growth at 1 µg/mL [2, 4]: 13.1% | inhibition of growth at 1 µg/mL [2, 5]: 13.9%

CO[C@@]12[C@H](COC(N)=O)C3=C(C(=O)C(C)=C(N)C3=O)N1C[C@@H]1N[C@@H]12 [Mitomycin C]
NFF_Activity [1, 6]: I (otherwise these were reported as inactive (I)) | inhibition of growth at 1 µg/mL [2, 4]: 11.5% | inhibition of growth at 1 µg/mL [2, 5]: 3.72%

COC(=O)C1=C2Nc3ccccc3[C@@]23CCN2C[C@]4(C[C@@H]5C[C@]67CCC[C@H]6CCN6CC[C@@]8(c9cccc(OC)c9N(C4)[C@@]58O)[C@@H]67)[C@@H]4OCC[C@]4(C1)[C@H]23 [Vobtusine]
NFF_Activity [1, 3]: I (otherwise these were reported as inactive (I)) | inhibition of growth at 1 µg/mL [2, 4]: 9.54% | inhibition of growth at 1 µg/mL [2, 5]: 11.4%

O=c1[nH]c2ccccc2c(-c2ccccc2)c1O [Viridicatin]
NFF_Activity [1, 3]: I (otherwise these were reported as inactive (I)) | inhibition of growth at 1 µg/mL [2, 4]: 10.7% | inhibition of growth at 1 µg/mL [2, 5]: 15.1%

C=C(CC[C@]12O[C@H](C(=O)O)[C@@](O)(C(=O)O)[C@](C(=O)O)(O1)[C@H](OC(=O)/C=C/[C@@H](C)C[C@@H](C)CC)[C@H]2O)[C@@H](OC(C)=O)[C@H](C)Cc1ccccc1 [Zaragozic acid A]
NFF_Activity [1, 3]: I (otherwise these were reported as inactive (I)) | inhibition of growth at 1 µg/mL [2, 4]: 9.75% | inhibition of growth at 1 µg/mL [2, 5]: 7.01%

CC(C)[C@@H]1NC(=O)[C@H](C)OC(=O)[C@@H](C(C)C)NC(=O)[C@@H](C(C)C)OC(=O)[C@H](C(C)C)NC(=O)[C@H](C)OC(=O)[C@@H](C(C)C)NC(=O)[C@@H](C(C)C)OC(=O)[C@H](C(C)C)NC(=O)[C@H](C)OC(=O)[C@@H](C(C)C)NC(=O)[C@@H](C(C)C)OC1=O [Valinomycin]
NFF_Activity [1, 3]: I (otherwise these were reported as inactive (I)) | inhibition of growth at 1 µg/mL [2, 4]: 9.18% | inhibition of growth at 1 µg/mL [2, 5]: 12.2%

Cc1cc(O)c(C=O)c2c1C(=O)Oc1c(C)c(O)c3c(c1O2)C(O)OC3=O (stereo not drawn) [Norstictic acid]
NFF_Activity [1, 6]: I (otherwise these were reported as inactive (I)) | inhibition of growth at 1 µg/mL [2, 4]: 13.7% | inhibition of growth at 1 µg/mL [2, 5]: 12.1%

CO/N=C1\C[C@]2(C[C@@H]3C[C@@H](C/C=C(\C)C[C@@H](C)/C=C/C=C4\CO[C@@H]5[C@H](O)C(C)=C[C@@H](C(=O)O3)[C@]45O)O2)O[C@H](/C(C)=C/C(C)C)[C@H]1C [Moxidectin]
NFF_Activity [1, 6]: I (otherwise these were reported as inactive (I)) | inhibition of growth at 1 µg/mL [2, 4]: 9.23% | inhibition of growth at 1 µg/mL [2, 5]: 6.09%

C[C@@H]1Cc2c(Cl)cc(C(=O)N[C@@H](Cc3ccccc3)C(=O)O)c(O)c2C(=O)O1 [Ochratoxin A]
NFF_Activity [1, 6]: I (otherwise these were reported as inactive (I)) | inhibition of growth at 1 µg/mL [2, 4]: 13% | inhibition of growth at 1 µg/mL [2, 5]: 11.6%

CCCCCCC(=O)CCCCCC/C=C/C[C@@H](O)[C@H](O)[C@@](N)(CO)C(=O)O [Myriocin]
NFF_Activity [1, 6]: I (otherwise these were reported as inactive (I)) | inhibition of growth at 1 µg/mL [2, 4]: 10.9% | inhibition of growth at 1 µg/mL [2, 5]: 15.1%

CC1(C)C=Cc2cc3ccc(=O)oc3cc2O1 [Xanthyletin]
NFF_Activity [1, 3]: I (otherwise these were reported as inactive (I)) | inhibition of growth at 1 µg/mL [2, 4]: 12% | inhibition of growth at 1 µg/mL [2, 5]: 15.5%

O=C(c1cc(Cl)c(Cl)[nH]1)c1c(O)cccc1O [Pyoluteorin]
NFF_Activity [1, 6]: I (otherwise these were reported as inactive (I)) | inhibition of growth at 1 µg/mL [2, 4]: 6.82% | inhibition of growth at 1 µg/mL [2, 5]: 7.19%

CN[C@H](CC(C)C)C(=O)N[C@H]1C(=O)N[C@@H](CC(N)=O)C(=O)N[C@H]2C(=O)N[C@H]3C(=O)N[C@H](C(=O)N[C@H](C(=O)O)c4cc(O)cc(O)c4-c4cc3ccc4O)[C@H](O)c3ccc(c(Cl)c3)Oc3cc2cc(c3O[C@@H]2O[C@H](CO)[C@@H](O)[C@H](O)[C@H]2O[C@H]2C[C@](C)(N)[C@H](O)[C@H](C)O2)Oc2ccc(cc2Cl)[C@H]1O [Vancomycin hydrochloride]
NFF_Activity [1]: I (key: active (A) compounds having >25% inhibitory activity; otherwise these were reported as inactive (I)) | inhibition of growth at 1 µg/mL [2, 4]: 1.36% | inhibition of growth at 1 µg/mL [2, 5]: 5.42%

CN(C)c1ncnc2c1ncn2[C@@H]1O[C@H](CO)[C@@H](N)[C@H]1O [Puromycin aminonucleoside]
NFF_Activity [1, 6]: I (otherwise these were reported as inactive (I)) | inhibition of growth at 1 µg/mL [2, 4]: 15.7% | inhibition of growth at 1 µg/mL [2, 5]: 13%

C=C(NC(=O)C(=C)NC(=O)c1csc(C2=N[C@@H]3c4csc(n4)[C@H]4NC(=O)c5csc(n5)[C@H]([C@](C)(O)[C@@H](C)O)NC(=O)[C@H]5CSC(=N5)/C(=C/C)NC(=O)[C@H]([C@@H](C)O)NC(=O)c5csc(n5)[C@]3(CC2)NC(=O)[C@H](C)NC(=O)C(=C)NC(=O)[C@H](C)NC(=O)[C@H]([C@@H](C)CC)N[C@@H]2C=Cc3c([C@H](C)O)cc(nc3[C@H]2O)C(=O)O[C@@H]4C)n1)C(N)=O [Thiostrepton]
NFF_Activity [1, 3]: I (otherwise these were reported as inactive (I)) | inhibition of growth at 1 µg/mL [2, 4]: 9.91% | inhibition of growth at 1 µg/mL [2, 5]: 14.3%

CC[C@H]1C[C@@H]2CC[C@@H](O2)[C@@H](C)C(=O)O[C@H](C)C[C@H]2CC[C@H](O2)[C@H](C)C(=O)O[C@@H](C)C[C@@H]2CC[C@@H](O2)[C@@H](C)C(=O)O[C@H](C)C[C@H]2CC[C@H](O2)[C@H](C)C(=O)O1 [Monactin]
NFF_Activity [1, 6]: I (otherwise these were reported as inactive (I)) | inhibition of growth at 1 µg/mL [2, 4]: 10% | inhibition of growth at 1 µg/mL [2, 5]: 10.7%

COc1ccc2c3c4n(c2c1)[C@H](C=C(C)C)OOC(C)(C)C[C@@H]4N1C(=O)[C@@H]2CCCN2C(=O)[C@]1(O)[C@H]3O [Verruculogen]
NFF_Activity [1, 3]: I (otherwise these were reported as inactive (I)) | inhibition of growth at 1 µg/mL [2, 4]: 10.3% | inhibition of growth at 1 µg/mL [2, 5]: 10.6%

Cn1c2ccccc2c(=O)c2c(O)cc3c(c21)C=CC(C)(C)O3 [Noracronycine]
NFF_Activity [1, 6]: I (otherwise these were reported as inactive (I)) | inhibition of growth at 1 µg/mL [2, 4]: 8.76% | inhibition of growth at 1 µg/mL [2, 5]: 12.6%
